# Columns and labels:
# [1] = test system: Murine L1210 leukemia cells; assay: Polyamine determinations (HPLC) in cultured cells treated with DFMO or DFMO analogs; format: cell-based; parameters: PUT (amount): unit not given beside the values; SPD (amount) / SPM (amount) / [PUT] (concentration) / [SPD] (concentration) / [SPM] (concentration) / 48 hr avg put / 48 hr avg spd: unit not given here; conditions: for 24 hr avg put / 24 hr avg spd / 24 hr avg spm / 48 hr avg put / 48 hr avg spd / 48 hr avg spm: average of 10, 50, 100 uM treatments; for 24 hr avg put / 24 hr avg spd / 24 hr avg spm: 24 hour treatment
# Method: Cell Growth. […] After 24 or 48 h, cells were removed from tubes for counting and viability determinations. Cell number was determined by electronic particle counting (Model 2F Coulter Counter; Coulter Electron-ics, Hialeah, Fla.) and confirmed periodically with hemocytometer measurements. […] The percentage of control growth was determined as follows. Cell samples were washed twice in cold PBS, and an aliquot of […] was removed for polyamine determination. The cells were pelleted, and the PBS supernatant was carefully removed with a cotton swab. […] The supernatant was frozen at -20° C. until analysis by HPLC. […] The column temperature was maintained at 65° C. with water from a circulating bath. The column was eluted at a flow rate of 16 ml/h with an initial column pressure of 500 psi which decreased with increasing ionic strength of the elution buffer. […] The column was reequilibrated for 10 min with Buffer 1 prior to loading the next sample. The column eluate was derivatized with 0.05% o-phthalaldehyde (Durrum Chemical Corp.) in 0.4M borate buffer (pH 10.4) containing […] and 0.09% Brij 35. The o-phthalaldehyde reagent flow rate was 8 ml/h. The derivatized eluate was analyzed for polyamine content by passing it through the flow cell of a […] (Fluoro-Monitor; American Instrument Co., Silver Spring, Md.) with a fixed excitation wavelength of 360 nm and emission wavelength of […]. Data were analyzed using a Hewlett Packard Model […] automation system.
# α-synuclein = α-synuclein (Homo sapiens, UniProt P37840); conditions: in vitro system, exogenously added (Antony 2003); cited from earlier work
# [2] = 10 uM treatment, 24 hr treatment
# [3] = 10 uM treatment, 48 hour treatment
# [4] = 50 uM treatment, 24 hr treatment
# [5] = 50 uM treatment, 48 hour treatment
# [6] = 100 uM treatment, 24 hr treatment
# [7] = 100 uM treatment, 48 hour treatment
structure (smiles),measurement,setting,value
CCOC(=O)C(CCCNC(=O)OC)(NC(=O)OC)C(F)F (stereo not shown) [DFMO Analog 2],PUT (amount),[1]; [2],56963
same,SPD (amount),[1]; [2],651020
same,SPM (amount),[1]; [2],481606
same,[PUT] (concentration),[1]; [2],0.02773
same,[SPD] (concentration),[1]; [2],0.799
same,[SPM] (concentration),[1]; [2],1.556
same,PUT (amount),[1]; [3],124533
same,SPD (amount),[1]; [3],3898235
same,SPM (amount),[1]; [3],4032041
same,[PUT] (concentration),[1]; [3],0.06062
same,[SPD] (concentration),[1]; [3],4.784
same,[SPM] (concentration),[1]; [3],13.03
same,PUT (amount),[1]; [4],379546
same,SPD (amount),[1]; [4],3615812
same,SPM (amount),[1]; [4],2470785
same,[PUT] (concentration),[1]; [4],0.1847
same,[SPD] (concentration),[1]; [4],4.438
same,[SPM] (concentration),[1]; [4],7.985
same,PUT (amount),[1]; [5],34544
same,SPD (amount),[1]; [5],848798
same,SPM (amount),[1]; [5],693740
same,[PUT] (concentration),[1]; [5],0.01681
same,[SPD] (concentration),[1]; [5],1.042
same,[SPM] (concentration),[1]; [5],2.242
same,PUT (amount),[1]; [6],27933
same,SPD (amount),[1]; [6],323941
same,SPM (amount),[1]; [6],212917
same,[PUT] (concentration),[1]; [6],0.0136
same,[SPD] (concentration),[1]; [6],0.3976
same,[SPM] (concentration),[1]; [6],0.6881
same,PUT (amount),[1]; [7],7198
same,SPD (amount),[1]; [7],231781
same,SPM (amount),[1]; [7],236426
same,[PUT] (concentration),[1]; [7],0.003504
same,[SPD] (concentration),[1]; [7],0.2845
same,[SPM] (concentration),[1]; [7],0.764
same,24 hr avg put,[1],0.07535
same,24 hr avg spd,[1],1.878
same,24 hr avg spm,[1],3.41
same,48 hr avg put,[1]; 48 hour treatment,0.02698
same,48 hr avg spd,[1]; 48 hour treatment,2.037
same,48 hr avg spm,[1]; 48 hour treatment,5.345
NCCCCNCCCN [spermidine],aggregation of α-synuclein,α-synuclein,accelerate
"NCCC[C@](N)(C(=O)O)C(F)F [DFMO, α-difluoromethylornithine, reference compound]",PUT (amount),[1]; [2],63429
same,SPD (amount),[1]; [2],2369255
same,SPM (amount),[1]; [2],2363841
same,[PUT] (concentration),[1]; [2],0.03087
same,[SPD] (concentration),[1]; [2],2.908
same,[SPM] (concentration),[1]; [2],7.639
same,SPD (amount),[1]; [3],254356
same,SPM (amount),[1]; [3],373610
same,[PUT] (concentration),[1]; [3],0
same,[SPD] (concentration),[1]; [3],0.3122
same,[SPM] (concentration),[1]; [3],1.207
same,SPD (amount),[1]; [4],542711
same,SPM (amount),[1]; [4],1315606
same,[PUT] (concentration),[1]; [4],0
same,[SPD] (concentration),[1]; [4],0.6661
same,[SPM] (concentration),[1]; [4],4.251
same,SPD (amount),[1]; [5],44007
same,SPM (amount),[1]; [5],482723
same,[PUT] (concentration),[1]; [5],0
same,[SPD] (concentration),[1]; [5],0.05401
same,[SPM] (concentration),[1]; [5],1.56
same,SPD (amount),[1]; [6],42842
same,SPM (amount),[1]; [6],98016
same,[PUT] (concentration),[1]; [6],0
same,[SPD] (concentration),[1]; [6],0.05258
same,[SPM] (concentration),[1]; [6],0.3167
same,SPD (amount),[1]; [7],220260
same,SPM (amount),[1]; [7],7071485
same,[PUT] (concentration),[1]; [7],0
same,[SPD] (concentration),[1]; [7],0.2703
same,[SPM] (concentration),[1]; [7],22.85
same,24 hr avg put,[1],0.01029
same,24 hr avg spd,[1],1.209
same,24 hr avg spm,[1],4.069
same,48 hr avg put,[1]; 48 hour treatment,0
same,48 hr avg spd,[1]; 48 hour treatment,0.2122
same,48 hr avg spm,[1]; 48 hour treatment,8.54
CCOC(=O)C(N)(CCCN)C(F)F (stereo not shown) [DFMO Analog 1],PUT (amount),[1]; [2],14507
same,SPD (amount),[1]; [2],1202403
same,SPM (amount),[1]; [2],149654
same,[PUT] (concentration),[1]; [2],0.007061
same,[SPD] (concentration),[1]; [2],0.2484
same,[SPM] (concentration),[1]; [2],0.4836
same,PUT (amount),[1]; [3],43116
same,SPD (amount),[1]; [3],1887299
same,SPM (amount),[1]; [3],2659801
same,[PUT] (concentration),[1]; [3],0.02099
same,[SPD] (concentration),[1]; [3],2.316
same,[SPM] (concentration),[1]; [3],8.595
same,SPD (amount),[1]; [4],163914
same,SPM (amount),[1]; [4],168544
same,[PUT] (concentration),[1]; [4],0
same,[SPD] (concentration),[1]; [4],0.2012
same,[SPM] (concentration),[1]; [4],0.5447
same,PUT (amount),[1]; [5],23355
same,SPD (amount),[1]; [5],1774662
same,SPM (amount),[1]; [5],4106905
same,[PUT] (concentration),[1]; [5],0.01137
same,[SPD] (concentration),[1]; [5],2.178
same,[SPM] (concentration),[1]; [5],13.27
same,SPD (amount),[1]; [6],377626
same,SPM (amount),[1]; [6],500166
same,[SPD] (concentration),[1]; [6],0.4635
same,[SPM] (concentration),[1]; [6],1.616
same,SPD (amount),[1]; [7],332304
same,SPM (amount),[1]; [7],1568383
same,[PUT] (concentration),[1]; [7],0
same,[SPD] (concentration),[1]; [7],0.4078
same,[SPM] (concentration),[1]; [7],5.068
same,24 hr avg put,[1],0.002354
same,24 hr avg spd,[1],0.3043
same,24 hr avg spm,[1],0.8815
same,48 hr avg put,[1]; 48 hour treatment,0.01078
same,48 hr avg spd,[1]; 48 hour treatment,1.634
same,48 hr avg spm,[1]; 48 hour treatment,8.978

# — patent publication US20120129939A1, “POLYAMINE INHIBITORS FOR THE TREATMENT AND PREVENTION OF PARKINSON'S DISEASE” (priority 2009, published 2012)
